Experiments:
PDE4B = biological target: T1, PDE4B (Homo sapiens, UniProt Q07343); assay: PDE/AK Biological Activity Assay (coupled PDE/adenylate kinase bioluminescent assay); type: biochemical; conditions: catalytic domain of PDE4B, read-out: PDE4 Enzyme IC50
T1 construct: hex-histidine (His6) (N); made in house
Source text: Phosphodiesterases regulate the activity of the second messenger cyclic adenosine monophosphate (cAMP) by hydrolyzing cAMP to adenosine monophosphate (AMP). We developed a coupled PDE/AK bioluminescent high-throughput assay to measure the activity of phosphodiesterases. In the PDE/AK assay, the AMP produced from the hydrolysis of cAMP by phosphodiesterase is converted to adenosine diphosphate (ADP) by the phosphotransferase activity of adenylate kinase (also known as ADK or myokinase). Adenylate kinase will catalyze the conversion of 1 mole of AMP and 1 mole of ATP into 2 moles of ADP. Thus the conversion of AMP to ADP will result in the subsequent loss of ATP. The decrease in ATP concentration can be monitored as light output using luciferase in a reaction that requires ATP to produce light. The PDE/AK assay uses luciferase, which catalyzes the production of light from ATP present in the reaction mix. The amount of emitted light is inversely proportional to the level of AMP present in the reaction. Test compounds are incubated with the phosphodiesterases and phosphodiesterase inhibitors will decrease the rate of cAMP hydrolysis and decrease the subsequent production of AMP. Thus phosphodiesterase inhibitors will decrease the conversion of ATP to ADP and result in the greatest emission of light.
Compounds may be screened for functional potency in in vitro biochemical assays for their ability to inhibit the activity of phosphodiesterase (PDE) enzymes. A coupled PDE/AK assay was utilized to measure the inhibitory activity of compounds on PDE isoforms. The catalytic domain of PDE4B was fused to an amino-terminus hex-histidine affinity tag and purified. PDE4B enzyme was incubated with compounds for 10 minutes. Cyclic AMP substrate, ATP and adenylate kinase were then added to the PDE enzyme mix and incubated for 45 minutes at room temperature. A commercial ATP detection assay, Perkin Elmer's easyLite ATP detection reagent, was then added to measure the relative amount of ATP present in the reaction. After 10 minute incubation, the luminescent signal was quantitated with either the Perkin Elmer Viewlux or Molecular Devices Acquest or Analyst. Roflumilast and Rolipram are the positive controls used in the assay.

Stability Protocol = type: physicochemical; conditions: pH 7.4 sodium phosphate buffer, preliminary shelf life (T90) estimated from stressed samples
Procedure: About 3 mg of a compound was dissolved in 3 mL of acetonitrile/water mixture (50/50). 100 μL of the stock solution was added to 20 mL each of 0.025 M pH 5.0 sodium acetate buffer (A5.0), 0.025 M pH 5.0 citrate buffer (C5.0) and 0.025 M pH 7.4 sodium phosphate buffer (P7.4). A two mL aliquot of each solution was kept in a glass vial equipped a cap lined with Teflon. Two vials containing the solution were stored at 4° C. or −20° C. as control. Other aliquots were stressed at RT, 45° C. or 75° C. for specified time check points, e.g. 1 day, 1 w, 2 w, 4 w, 8 w,12 w. The stressed samples in duplicate were assayed against the control using HPLC. The results were reported in % degradation. Preliminary shelf life (T90) was estimated assuming the rate of chemical degradation is double when the temperature is up 10° C.

Solubility Protocol = type: physicochemical; conditions: aqueous buffer, thermodynamic from solid; pH 7.4, 0.1 M sodium phosphate buffer
Procedure: About 5 mg of a compound was mixed with 500 μL of pH 7.4, 0.1 M sodium phosphate buffer. The mixture was adjusted to the original pH of 7.4 and then mixed overnight or longer via rotary mixing. The sample was checked for pH and then filtered through a 0.45 μm filter. If the pH drifted away, the sample was adjusted to its original pH and mixed for at least 15 minutes before filtration. The filtrate was analyzed using HPLC.

T1 sequence (Q07343 330-659 limits assumed, species assumed): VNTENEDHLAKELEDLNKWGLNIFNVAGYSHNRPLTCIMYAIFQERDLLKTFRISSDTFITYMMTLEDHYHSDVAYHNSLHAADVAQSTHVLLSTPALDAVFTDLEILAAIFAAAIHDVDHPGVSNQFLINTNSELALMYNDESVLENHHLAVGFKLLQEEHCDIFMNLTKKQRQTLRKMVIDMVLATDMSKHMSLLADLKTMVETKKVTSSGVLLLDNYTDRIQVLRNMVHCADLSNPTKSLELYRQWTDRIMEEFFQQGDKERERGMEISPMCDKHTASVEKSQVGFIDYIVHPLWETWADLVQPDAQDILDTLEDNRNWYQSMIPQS

Row | SMILES | IC50 (PDE4B) [nM] | Stability, pH 7.4 (Stability Protocol) | solubility (Solubility Protocol) [µg/mL]
1 | COc1ccc2c(Nc3c(C)cncc3C)cc(=O)[nH]c2c1OCCCCn1ccnc1 [Example 78, 8-(4-(1H-imidazol-1-yl)butoxy)-4-(3,5-dimethylpyridin-4-ylamino)-7-methoxyquinolin-2(1H)-one] | < 1000 | + (+ indicates ≧1 Year) | 
2 | COc1ccc2c(Nc3c(Cl)cncc3Cl)cc(=O)[nH]c2c1OCCCCCCN1CCNCC1 [Example 22, 4-(3,5-Dichloropyridin-4-ylamino)-7-methoxy-8-(6-(piperazin-1-yl)hexyloxy)quinolin-2(1H)-one] | < 1000 | + (+ indicates ≧1 Year) | ≥ 1000
3 | COc1ccc2c(Nc3c(C)cncc3C)cc(=O)[nH]c2c1OCCCCCCN(C)C [Example 38, 8-(6-(Dimethylamino)hexyloxy)-4-(3,5-dimethylpyridin-4-ylamino)-7-methoxyquinolin-2(1H)-one] | < 1000 | + (+ indicates ≧1 Year) | ≥ 1000
4 | COc1ccc2c(Nc3c(Cl)cncc3Cl)cc(=O)[nH]c2c1OCCCCCCCN1CCN(C)CC1 [Example 20, 4-(3,5-dichloropyridin-4-ylamino)-7-methoxy-8-(7-(4-methylpiperazin-1-yl)heptyloxy)quinolin-2(1H)-one] | < 1000 | + (+ indicates ≧1 Year) | ≥ 1000
5 | COc1ccc2c(Nc3c(C)cncc3C)cc(=O)[nH]c2c1OCCCCCn1ccnc1 [Example 79, 8-(5-(1H-imidazol-1-yl)pentyloxy)-4-(3,5-dimethylpyridin-4-ylamino)-7-methoxyquinolin-2(1H)-one] | < 1000 | + (+ indicates ≧1 Year) | 
6 | COc1ccc2c(Nc3c(Cl)cncc3Cl)cc(=O)[nH]c2c1OCCCN1CCN(C)CC1 [Example 18, 4-(3,5-dichloropyridin-4-ylamino)-7-methoxy-8-(3-(4-methylpiperazin-1-yl)propoxy)quinolin-2(1H)-one] | < 1000 | + (+ indicates ≧1 Year) | ≥ 1000
7 | COc1ccc2c(Nc3c(Cl)cncc3Cl)cc(=O)[nH]c2c1OCCCC(N)=O [Example 56, 4-(4-(3,5-dichloropyridin-4-ylamino)-7-methoxy-2-oxo-1,2-dihydroquinolin-8-yloxy)butanamide] | < 1000 | + (+ indicates ≧1 Year) | ≥ 1000
8 | COc1ccc2c(Nc3c(Cl)cncc3Cl)cc(=O)[nH]c2c1OCCCCCCN1CCN(C)CC1 [Example 15, 4-(3,5-Dichloropyridin-4-ylamino)-7-methoxy-8-(6-(4-methylpiperazin-1-yl)hexyloxy)quinolin-2(1H)-one] | < 1000 | + (+ indicates ≧1 Year) | ≥ 1000
9 | COc1ccc2c(Nc3c(Cl)cncc3Cl)cc(=O)[nH]c2c1OCC(C)C [Example 61, 4-(3,5-dichloropyridin-4-ylamino)-8-isobutoxy-7-methoxyquinolin-2(1H)-one] | < 1000 | + (+ indicates ≧1 Year) | 
10 | COc1ccc2c(Nc3c(Cl)cncc3Cl)cc(=O)[nH]c2c1OCCCCCCN1CCOCC1 [Example 16, 4-(3,5-Dichloropyridin-4-ylamino)-7-methoxy-8-(6-morpholinohexyloxy)quinolin-2(1H)-one] | < 1000 | + (+ indicates ≧1 Year) | ≥ 1000
11 | COc1ccc2c(Nc3c(Cl)cncc3Cl)cc(=O)[nH]c2c1OCCCN1CCOCC1 [Example 19, 4-(3,5-dichloropyridin-4-ylamino)-7-methoxy-8-(3-morpholinopropoxy)quinolin-2(1H)-one] | < 1000 | + (+ indicates ≧1 Year) | ≥ 1000
12 | COc1ccc2c(Nc3c(Cl)cncc3Cl)cc(=O)[nH]c2c1OCCCCC(N)=O [Example 57, 5-(4-(3,5-dichloropyridin-4-ylamino)-7-methoxy-2-oxo-1,2-dihydroquinolin-8-yloxy)pentanamide] | < 1000 | + (+ indicates ≧1 Year) | ≥ 1000
13 | COc1ccc2c(Nc3c(Cl)cncc3Cl)cc(=O)[nH]c2c1OCCCCCC(=O)O [Example 11, 6-(4-(3,5-Dichloropyridin-4-ylamino)-7-methoxy-2-oxo-1,2-dihydroquinolin-8-yloxy)hexanoic acid] |  | + (+ indicates ≧1 Year) | ≥ 1000
14 | COc1ccc2c(Nc3c(Cl)cncc3Cl)cc(=O)[nH]c2c1OCCCCCCC(=O)O [Example 53, 7-(4-(3,5-dichloropyridin-4-ylamino)-7-methoxy-2-oxo-1,2-dihydroquinolin-8-yloxy)heptanoic acid] | < 1000 | + (+ indicates ≧1 Year) | ≥ 1000
15 | COc1ccc2c(Nc3c(Cl)cncc3Cl)cc(=O)[nH]c2c1OCCCCCCCCN1CCN(C)CC1 [Example 21, 4-(3,5-dichloropyridin-4-ylamino)-7-methoxy-8-(8-(4-methylpiperazin-1-yl)octyloxy)quinolin-2(1H)-one] | < 1000 | + (+ indicates ≧1 Year) | ≥ 1000
16 | COc1ccc2c(Nc3c(Cl)cncc3Cl)cc(=O)[nH]c2c1OCCCCCc1nn[nH]n1 [Example 69, 8-(5-(2H-tetrazol-5-yl)pentyloxy)-4-(3,5-dichloropyridin-4-ylamino)-7-methoxyquinolin-2(1H)-one] | < 1000 | + (+ indicates ≧1 Year) | 
17 | COc1ccc2c(Nc3c(Cl)cncc3Cl)cc(=O)[nH]c2c1OCCCCC(=O)O [Example 52, 5-(4-(3,5-dichloropyridin-4-ylamino)-7-methoxy-2-oxo-1,2-dihydroquinolin-8-yloxy)pentanoic acid] | < 1000 | + (+ indicates ≧1 Year) | ≥ 1000
18 | COc1ccc2c(Nc3c(Cl)cncc3Cl)cc(=O)[nH]c2c1OCCCCCCCC(=O)O [Example 54, 8-(4-(3,5-dichloropyridin-4-ylamino)-7-methoxy-2-oxo-1,2-dihydroquinolin-8-yloxy)octanoic acid] | < 1000 | + (+ indicates ≧1 Year) | ≥ 1000
19 | COc1ccc2c(Nc3c(Cl)cncc3Cl)cc(=O)[nH]c2c1OCCCCCN(C)C [Example 14, 4-(3,5-Dichloropyridin-4-ylamino)-8-(5-(dimethylamino)pentyloxy)-7-methoxyquinolin-2(1H)-one] |  | + (+ indicates ≧1 Year) | ≥ 1000
20 | COc1ccc2c(Nc3c(C)cncc3C)cc(=O)[nH]c2c1OCCCCCCN1CCOCC1 [Example 35, 4-(3,5-Dimethylpyridin-4-ylamino)-7-methoxy-8-(6-morpholinohexyloxy)quinolin-2(1H)-one] | < 1000 | + (+ indicates ≧1 Year) | ≥ 1000
21 | COc1ccc2c(Nc3c(Cl)cncc3Cl)cc(=O)[nH]c2c1OCCCCCC(N)=O [Example 58, 6-(4-(3,5-dichloropyridin-4-ylamino)-7-methoxy-2-oxo-1,2-dihydroquinolin-8-yloxy)hexanamide] | < 1000 | + (+ indicates ≧1 Year) | ≥ 1000

Source: patent US8138205B2, “Heteroarylalkoxy-substituted quinolone inhibitors of PDE4” (Kalypsys, Inc., priority 2006, dated 2012)
